Measured values: ChEMBL document CHEMBL4706603, “Discovery of VEGFR-2 inhibitors exerting significant anticancer activity against CD44+ and CD133+ cancer stem cells (CSCs): Reversal of TGF-β induced epithelial-mesenchymal transition (EMT) in hepatocellular carcinoma” (Eur J Med Chem, 2020)

Tests used:
MCF7 = experiment: Cytotoxicity against human MCF7 cells assessed as reduction in cell viability incubated for 24 hrs by MTT assay; type: functional, cell-based; details: for IC50: MCF7, 24 h
MDA-MB-231 [1] = experiment: Induction of apoptosis in human MDA-MB-231 cells assessed as early apoptotic cells at IC50 incubated for 72 hrs by Alexa Fluor488-annexin V/PI staining based flow cytometric analysis (Rvb= 0.6 %); type: functional
MDA-MB-231 [2] = experiment: Induction of apoptosis in human MDA-MB-231 cells assessed as necrotic cells at IC50 incubated for 72 hrs by Alexa Fluor488-annexin V/PI staining based flow cytometric analysis (Rvb= 0.0 %); type: functional
MDA-MB-231 [3] = experiment: Induction of apoptosis in human MDA-MB-231 cells assessed as viable cells at IC50 incubated for 72 hrs by Alexa Fluor488-annexin V/PI staining based flow cytometric analysis (Rvb= 99.4 %); type: functional
MDA-MB-231 [4] = experiment: Induction of apoptosis in human MDA-MB-231 cells assessed as late apoptotic cells at IC50 incubated for 72 hrs by Alexa Fluor488-annexin V/PI staining based flow cytometric analysis (Rvb= 0.0 %); type: functional
MDA-MB-231 [5] = experiment: Cytotoxicity against human MDA-MB-231 cells assessed as reduction in cell viability incubated for 24 hrs by MTT assay; type: functional, cell-based; details: for IC50: MDA-MB-231, 24 h
HepG2 = experiment: Cytotoxicity against human HepG2 cells assessed as reduction in cell viability incubated for 24 hrs by MTT assay; type: functional, cell-based; details: for IC50: HepG2, 24 h
Chorioallantoic membrane = experiment: Antiangiogenic activity in chicken fertilized egg chorioallantoic membrane measured upto 72 hrs by CAM assay; type: functional, tissue-based; details: Gallus gallus, dose 0.01-2 µM, time hrs <=72
HUVEC [6] = experiment: Induction of apoptosis in human HUVEC assessed as late apoptotic cells at IC50 incubated for 48 hrs by annexin V-FITC and PI staining based flow cytometry; type: functional
HUVEC [7] = experiment: Antiproliferative activity against human HUVEC assessed as reduction in cell viability incubated for 24 hrs by MTT assay; type: functional, cell-based
[8] = Inhibition of VEGFR2 expression in human HUVEC assessed as mean fluorescence intensity at IC50 incubated for 48 hrs by fluorescence microscopic analysis (reference value: 1.448 +/- 0.01); type: functional
[9] = Inhibition of VEGF expression in human HUVEC assessed as mean fluorescence intensity at IC50 incubated for 48 hrs by FITC based flow cytometry analysis (reference value: 53.91+/- 0.95); type: functional
HUVEC [10] = experiment: Induction of apoptosis in human HUVEC assessed as early apoptotic cells at IC50 incubated for 48 hrs by annexin V-FITC and PI staining based flow cytometry (reference value: <1%); type: functional
[11] = Inhibition of VEGFR2 expression in human HUVEC assessed as mean fluorescence intensity at IC50 incubated for 48 hrs by FITC based flow cytometry analysis (reference value: 49.24 +/- 0.47); type: functional

For `O=C(Nc1ccccc1)Nc1cccc2c(O)cccc12`, which inhibition (MCF7) is on record?
Its inhibition is “Dose-dependent effect”.

With `O=C(Nc1cccc(C(F)(F)F)c1)Nc1cccc2c(O)cccc12` as the compound, how does the inhibition (MCF7) read?
The inhibition was “Dose-dependent effect”.

What about the IC50 (MCF7) of the same compound?
Its IC50 is 0.953 µM.

Which inhibition (MCF7) does the source give for `COc1ccc(NC(=O)Nc2cccc3c(Oc4ccc([N+](=O)[O-])cc4)cccc23)cc1` here?
Its inhibition is “Dose-dependent effect”.

Which Activity (MDA-MB-231 [1]) does the source give for `CC(=O)Nc1ccc(Oc2cccc3c(NC(=O)Nc4ccc(Cl)c(C(F)(F)F)c4)cccc23)cc1` here?
Its Activity is 47%.

What about the Activity (MDA-MB-231 [2]) of the same compound?
Its Activity is 4.6%.

And the Activity (MDA-MB-231 [3])?
Its Activity is 20.9%.

And the inhibition (MCF7)?
The inhibition was “Dose-dependent effect”.

And the Activity (MDA-MB-231 [4])?
The Activity was 27.5%.

What about the inhibition (MDA-MB-231 [5]) of the same compound?
Its inhibition is “Dose-dependent effect”.

What about the IC50 (MDA-MB-231 [5]) of the same compound?
The IC50 was 1.41 µM.

And the inhibition (HepG2)?
The inhibition was “Dose-dependent effect”.

What about the IC50 (HepG2) of the same compound?
The IC50 was 0.258 µM.

What about the Activity (Chorioallantoic membrane) of the same compound?
Its Activity is “Dose-dependent effect”.

What does the source list for `CC(=O)Nc1ccc(Oc2cccc3c(NC(=O)Nc4ccccc4)cccc23)cc1`?
Activity (MDA-MB-231 [1]): 46.37%; Activity (MDA-MB-231 [2]): 4.5%; Activity (MDA-MB-231 [3]): 21.2%; inhibition (MCF7): Dose-dependent effect; Activity (MDA-MB-231 [4]): 27.4%; inhibition (MDA-MB-231 [5]): Dose-dependent effect; IC50 (MDA-MB-231 [5]): 1.41 µM; inhibition (HepG2): Dose-dependent effect; IC50 (HepG2): 0.258 µM; Activity (Chorioallantoic membrane): Dose-dependent effect

What does the source list for `O=C(Nc1cccc(C(F)(F)F)c1)Nc1cccc2c(Oc3ccc([N+](=O)[O-])cc3)cccc12`?
inhibition (MCF7): Dose-dependent effect; IC50 (MCF7): 0.953 µM

What does the source list for `O=C(Nc1ccc(Cl)c(C(F)(F)F)c1)Nc1cccc2c(Oc3ccc([N+](=O)[O-])cc3)cccc12`?
inhibition (MCF7): Dose-dependent effect; IC50 (MCF7): 0.953 µM

Which Activity (HUVEC [6]) does the source give for `CNC(=O)c1cc(Oc2ccc(NC(=O)Nc3ccc(Cl)c(C(F)(F)F)c3)cc2)ccn1.Cc1ccc(S(=O)(=O)O)cc1` [SORAFENIB TOSYLATE] here?
The Activity was 25.6%.

And the IC50 (HUVEC [7])?
Its IC50 is 1.95 µM.

What about the Flu intensity [8] of the same compound?
Its Flu intensity is 1.1.

And the Flu intensity [9]?
The Flu intensity was 7.14.

And the Activity (HUVEC [10])?
Its Activity is 24.5%.

What about the IC50 (MCF7) of the same compound?
Its IC50 is 1.38 µM.

And the IC50 (MDA-MB-231 [5])?
Its IC50 is 0.349 µM.

And the Flu intensity [11]?
The Flu intensity was 6.45.

What about the IC50 (HepG2) of the same compound?
Its IC50 is 0.215 µM.

What does the source list for `O=C(Nc1ccccc1)Nc1cccc2c(Oc3ccc([N+](=O)[O-])cc3)cccc12`?
inhibition (MCF7): Dose-dependent effect; IC50 (MCF7): 0.953 µM
